Data: patent US20200023036A1, “PHARMACEUTICAL COMPOSITION FOR PREVENTING OR TREATING INFLAMMATORY RESPIRATORY DISEASE CONTAINING FUSION PROTEIN IN WHICH CELL-PENETRATING PEPTIDE AND CTCTLA4 PEPTIDE ARE FUSED AS ACTIVE INGREDIENT” (IUCF-HYU (INDUSTRY-UNIVERSITY COOPERATION FOUNDATION HANYANG, priority 2017, published 2020)

Key:
[1] = tested on: GCE-induced allergic asthma animal model; experiment: Airway hyperresponsiveness (AHR) to methacholine in GCE-induced allergic asthma animal model (Test Example 2); type: in vivo, BALB/c mice; conditions: 10 μg intranasal together with GCE twice a week for 3 weeks; measured on day 21
Experimental: The mice reared according to the method of 1) were used. Specifically, the 8-week-old BALB/c mice were sensitized by intranasal administration of PBS (sham) or 120 μg of GCE prepared according to the method of 2) twice a week for 3 weeks.
AHR was measured 4 days after the last GCE administration using a flexiVent 5.1 small-animal ventilator (SCIREQ, Montreal, PQ, Canada). The mice were placed in a whole body plethysmograph (Buxco, USA) and 0.4 mL of methacholine solutions at various concentrations (3.1, 6.25, 12.5, 25 or 50 mg/mL) in aerosols were administered through inhalation for 10 seconds. Penh was measured 1 minute and 2 minutes after the administration and the mean value was determined as the Penh (enhanced pause) value for the corresponding methacholine administration dosage.
The mice reared according to 1) of Experimental methods were used. Specifically, PBS (sham) or 120 μg of GCE prepared according to 2) of Experimental methods was intranasally administered to the 8-week-old BALB/c mice twice a week for 3 weeks. […] On day 21, the mice were anesthetized and hyperresponsiveness to methacholine (MeCh) was measured (see 4) of Experimental methods).
The mice reared according to 1) of Experimental methods were used. […]
On day 21, the animals were anesthetized and hyperresponsiveness to methacholine (MeCh) was measured (see 4) of Experimental methods).

[2] = tested on: GCE-induced allergic asthma animal model; experiment: Lung tissue observation with PAS and Masson's trichrome stain in GCE-induced allergic asthma animal model (Test Example 3); type: in vivo, BALB/c mice; conditions: 10 μg intranasal together with GCE
Experimental: The lung was fixed in a 10% formalin solution for a day and tissues were prepared as paraffin blocks and sectioned to 3- to 4-μm thickness using a microtome. The prepared slides were stained with PAS (periodic acid-Schiff) stain or Masson's trichrome stain.
To evaluate the inhibitory effect of the dNP2-ctCTLA-4 fusion protein on the pathophysiology of lungs in the GCE-induced allergic asthma animal model, the lung tissues of each test group and control group of Test Example 2 was observed according to 7) of Experimental methods.
The lung tissue of each test group and control group of Test Example 3 was imaged after staining with PAS. The red region indicates mucus-secreting goblet cells.
The lung tissues of each test group and control group of Test Example 3 were imaged after staining with Masson's trichrome stain. The blue region indicates collagen deposition and fibrosis.

[3] = tested on: GCE-induced allergic asthma animal model; experiment: Cell number and immune cell distribution in bronchoalveolar lavage fluid (Test Example 4); type: in vivo, BALB/c mice; conditions: 10 μg intranasal together with GCE; versus GCE-administered PBS test group
Experimental: In order to collect the bronchoalveolar lavage fluid, the mouse lungs were washed with 1 mL of HBSS (Hank's balanced salt solution) with an intubated tube fluid. Total cells in the lavage fluid were counted with a hemocytometer. Then, the lavage fluid was centrifuged and the cells were prepared on slides after centrifugation at 1000 rpm for 3 minutes. The slides were stained with a Hemacolor staining kit (Merck Millipore, Darmstadt, Germany). The cells were differentially counted until the total counted number reached at least 200 according to the standard hemocytologic procedures to count macrophages and eosinophils.
Experimental conditions were designed as in Test Example 2. A bronchoalveolar lavage fluid was obtained from each test group and control group of Test Example 2 and the inhibitory effect of eosinophil infiltration and Th2 cytokine production was investigated. The details of the design of experiments are as follows.
(§1) The mice reared according to 1) of Experimental methods were used. Specifically, 120 μg of GCE prepared according to 2) of Experimental methods was intranasally administered to the 8-week-old BALB/c mice twice a week for 3 weeks. 10 μg of dNP2-ctCTLA-4 (Example 2), dNP2-EGFP (Comparative Example 3) or a vehicle (PBS) was intranasally administered together when the GCE was administered to the mice.
15 minutes after the experiment was completed, a bronchoalveolar lavage fluid (BALF) was obtained by injecting 1 mL of PBS twice to each animal (see 5) of Experimental methods).

[4] = tested on: IL-5, IL-13, IL-4 and IFN-γ; experiment: Cytokine expression by ELISA in bronchoalveolar lavage and lung tissues (Test Example 4); type: in vivo, BALB/c mice; conditions: 10 μg intranasal together with GCE
Experimental: The […] obtained by the method of 5) was homogenized using the T-PER tissue protein extraction reagent (Thermo Fisher Scientific, MA, US) to prepare a suspension. The suspension was incubated at 4° C. for 30 minutes and then centrifuged at 2500 rpm for 10 minutes. The supernatant was filtered with a 0.45-μm filter to analyze cytokine expression levels.
as §1
The concentration of IL-5, IL-13, IL-4 and IFN-γ was analyzed with the ELSISA kit and the result was normalized to the total protein concentration of the tissue. The protein concentration was quantified by the Bradford assay. n=5 per each group and the results are presented as mean±s.e.m. (standard error of mean). *p<0.05, **p<0.01.
In this experiment, the bronchoalveolar lavage (BAL) and lung tissues were recovered from each test group and control group and the expression level of IL-13, IL-4 and Th2 cytokines was compared.

IL-13, IL-4 and IFN-γ = experiment: Cytokine expression by ELISA in bronchoalveolar lavage and lung tissues, comparison with CTLA4-Ig (Test Example 5); type: in vivo, BALB/c mice; conditions: 10 μg intranasal together with GCE
Experimental: The mice reared according to 1) of Experimental methods were used. Specifically, 120 μg of GCE prepared according to 2) of Experimental methods was intranasally administered to the 8-week-old BALB/c mice twice a week for 3 weeks.
(standard error of mean). *p<0.05, **p<0.01.

[5] = tested on: GCE-induced allergic asthma animal model; experiment: H&E lung tissue observation and airway epithelial thickness, comparison with CTLA4-Ig (Test Example 5); type: in vivo, BALB/c mice
[6] = tested on: naive CD4 T cells differentiated into Th2 cells; experiment: Th2 differentiation assay (Test Example 6); type: cell-based, BALB/c mice; conditions: 1 μM for 6 days; anti-CD3/CD28, IL-4; flow cytometry
Experimental: Mouse naive CD4 T cells were isolated from the 8-week-old BALB/c mice by magnetic-activated cell sorting (MACS, naive CD4 T cell isolation kit, mouse, Miltenyi, Bergisch Gladbach, Germany).
Then, 2.5×10^5 of the isolated cells were seeded onto anti-CD3/anti-CD28 antibody (0.1 μg/mL)-coated 96-well plates. The cells were incubated in the presence of anti-IFN-γ neutralizing antibody (5 μg/mL), IL-2 (50 U/mL), IL-4 (30 ng/mL) and PBS. After adding 1 μM dNP2-EGFP (Comparative Example 3) or 1 μM dNP2-ctCTLA-4 (Example 2) to each well for 6 days, the cells were analyzed by flow cytometry after re-stimulation, protein transport inhibitor treatment and intracellular staining with anti-mouse IFN-γ-FITC and anti-mouse IL-4-PE FACS antibodies.
The experiment was conducted according to 8) of Experimental methods.
MACS-sorted CD4^+ CD62L^hiCD44^− native CD4 T cells isolated from 8-week-old BALB/c mice were used. They were differentiated into Th2 cells by addition of IL-4 during activation with anti-CD3/CD28 antibodies for 6 days.
The result is presented as mean±s.e.m. (standard error of mean) (n=3). **p<0.01. NA (non-activated) denotes a negative control group, not stimulated by cytokines or anti-TcR antibody.

## dNP2-ctCTLA-4: fusion protein: cell-penetrating peptide dNP2 (SEQ ID NO 1) linked to the N-terminal of the ctCTLA-4 peptide (SEQ ID NO 2) (KIKKVKKKGRKGSKIKKVKKKGRKKMLKKRSPLTTGVYVKMPPTEPECEKQFQPYFIPIN; Synthetic peptide sequence, dNP2 peptide; Synthetic peptide sequence, ctCTLA-4 peptide)
[1]
  airway hyperresponsiveness to methacholine (airway resistance and airway elastance): significantly reduced airway hyperresponsiveness
[2]
  fibrotic area around the bronchial regions (Masson's trichrome stain): significantly reduced fibrotic area
  inflammatory cells and goblet cells in the lungs (PAS stain): significantly reduced inflammatory cells and goblet cells
[3]
  decrease in the number of eosinophils in the bronchoalveolar lavage (BAL): ≥ 3 times
  decrease in the number of macrophages in the bronchoalveolar lavage (BAL): ≥ 3 times
  decrease in the number of total cells in the bronchoalveolar lavage (BAL): ≥ 3 times
[4]; ELISA
  level of IFN-γ: decreased level of IFN-γ
[4]; ELISA normalized to total protein, versus PBS test group
  decreased expression levels of IL-5, IL-13, IL-4 and IFN-γ in lung tissues: > 2 times
[4]; ELISA, versus PBS test group
  decreased expression levels of IL-5, IL-13, IL-4 and IFN-γ in the bronchoalveolar lavage (BAL): more than 3 times
IL-13, IL-4 and IFN-γ
  levels of IL-13 and IFN-γ in the bronchoalveolar lavage (BAL) and lung tissues: significantly decreased levels of IL-13 and IFN-γ
[5]; 10 μg intranasal together with GCE
  physiological features of the respiratory epithelium: cell infiltration and airway epithelium thickening (H&E): improved physiological features of the respiratory epithelium
[5]; intranasal administration, GCE-induced allergic asthma animal model
  pharmacological effect relative to the existing CTLA4-Ig: 2-3 times
[6]
  cytokine production (IL-4 and/or IL-13-producing CD4 T cells) in Th2 differentiation: significantly reduced cytokine production
